The values that follow come from patent US8513267B2, “4-anilinoquinazoline derivatives with adenosine-kinase inhibitor properties” (Universidade Estadual de Campinas-Unicamp, priority 2004, dated 2013).

In data set [1] the test system is isolated rat hearts. The data set is described as follows: Concentration-response of quinazoline compounds on left ventricle systolic pressure and heart rate of isolated rat hearts. Conditions: for increase in systolic pressure: according to basal absolute values of systolic pressure; for bradycardia response: decrease in heart rate compared to basal values; for Final heart rate: final value after infusions of increased concentrations; for Emax in the fractional pressor response: fractional values; for Initial heart rate: initial value before infusions of increased concentrations; for maximum pressor response (LVP): isolated rat hearts, infused concentrations 30 pM-2 μM. The source says: Systolic pressure responses of the left ventricle were expressed as fractional values, while heart rate responses were expressed as absolute values. […] EC50: concentration of the drug that produces half of the maximum effect.

Data set [2] concerns myocardium of isolated rat hearts. Nature of the data set: Adenosine dosage (HPLC) in the myocardium of isolated rat hearts. The source says:
We conducted adenosine dosages in the myocardium of isolated rat hearts with compounds 4d (Example 7) and 4i (Example 17). Chromatograms obtained through HPLC experiments in rat myocardium extracts for dosage of tissue adenosine and AMP are presented in FIG. 6.

A further data set deals with T1, cardiac adenosine kinase (Rattus norvegicus, UniProt Q64640).
T1 construct: used as a substrate in myocardium extracts; from tissue; host or cells: rat myocardium (heart) extract
Nature of the data set: HPLC adenosine kinase activity test with derivatized adenosine as substrate in myocardium extracts. It counts as biochemical. Conditions: fluorescence detection.

In data set [3] the test system is isolated rat hearts. The data set is described as follows: Concentration-response in isolated heart with heart rate held constant by electrical stimulator. Conditions: heart rate held constant by electrical stimulator (FIG. 12). From the text: In order to confirm our hypothesis that pressor response of compound 4i depends on bradycardia and not on a direct action of 4i in the inotropism of isolated rat hearts, we conducted experiments where heart rate was held constant during infusion of increased concentrations of 4i (Example 17), through the action of an electrical stimulator. In FIG. 12 we represent the concentration-response relationship to 4i (Example 17) in isolated heart submitted to electrical stimulus.

Data set [4] has as its system isolated hearts. The data set is described as follows: Isolated hearts perfused with propanolol, diltiazem or reduced calcium concentration. Also noted: species or system rat. To be noted: propanolol or diltiazem blocking, or decreased calcium in perfusion buffer. From the text: There was also a negative correlation between levels of ventricular pressure and heart rate in isolated hearts treated with increased doses of compound 4i (Example 17) in the presence of blockers like propanolol and diltiazem, and reduced concentrations of calcium in the perfusion buffer. In FIG. 11, we presented diagrams of the correlation between increase in systolic pressure and decrease in heart rate in isolated hearts submitted to injections (bolus) of 4i (Example 17) perfused with propanolol, diltiazem and with reduction of the calcium concentration in the perfusion buffer. Data are presented as mean±S.E.M.
Results obtained with 4i (Example 17) and other quinazoline compounds point out that the main functional effect of these compounds on isolated rat hearts is bradycardia, and the pressor effect depends on bradycardia, and thus is a consequence of particularities of the preparation used (i.e., isolated heart) and not a direct effect. Because the bradycardia response was not altered by propanolol or diltiazem blocking, or even by decrease in calcium concentration in the perfusion buffer, our hypothesis is that this effect of quinazoline compounds depends on a direct effect of them on pacemaker cells, or even on an indirect effect through secretion of autocrine or paracrine compounds. […]

The test system of data set [5] is isolated rat hearts. The data set is described as follows: Heart rate of isolated rat hearts perfused with HEPES buffer with 1 nM 4i with or without 8-PT. Here is the method:
In FIG. 14, we present diagrams that represent heart rates of isolated rat hearts perfused with pure HEPES buffer (control), or HEPES buffer with 1 nM of 4i (Example 17), or HEPES buffer with 1 nM of 4i (Example 17) plus 1 μM of unspecific inhibitor of adenosine receptors, 8-PT (4i+8-PT). […] However, perfusion of hearts with 4i (Example 17) and 8-PT annulled bradycardia caused by 4i (Example 17), confirming our hypothesis that the quinazoline compound could be acting in a direct or indirect way on adenosine receptors. In Table 5, we present heart rate values (bpm) from individual experiments of isolated hearts perfused with pure HEPES buffer (control), HEPES buffer with 1 nM of 4i (Example 17), or HEPES buffer with 1 nM of 4i (Example 17) and […] of 8-PT (mean±S.E.M.).

Data set [6] concerns isolated hearts. Nature of the data set: Concentration-effect experiments with adenosine with and without 8-PT in isolated hearts. Also noted: species or system rat. To be noted: for EC50: Rattus norvegicus. The protocol:
In Table 3, we present values of Emax, EC50 (nM) and LogEC50 in the fractional pressor response to infusion of increased concentrations of adenosine in isolated hearts perfused with pure HEPES buffer, or with HEPES buffer with 8-PT (mean±S.E.M.).
Both effects were altered by the action of the unspecific adenosine receptor inhibitor, 8-PT (1 μM), added to the perfusion buffer. According to results presented in FIG. 13, the increase in systolic pressure in response to infusion of increased concentrations of adenosine, both in control hearts as in those treated with the unspecific adenosine inhibitor, was almost the same. […] Concerning heart rate, the adenosine bradycardia effect was reduced when the inhibitor was present, showing a decrease of about 15% if compared to basal values of Table 4, where we present initial and final heart rate values (bpm) in the response to infusion of increased concentrations of adenosine in isolated hearts perfused with pure HEPES buffer and HEPES buffer with 8-PT (mean±S.E.M.).

[7] abbreviates: Rattus norvegicus, mean±S.E.M., given as negative log values, read-out: LogEC50 in the fractional pressor response (converted).
[8] abbreviates: Rattus norvegicus, mean±S.E.M., infusion of increased concentrations, read-out: EC50 in the fractional pressor response.
The mark [9] stands for this setting: mean±S.E.M., infusion of increased concentrations, hydrochloride.

One may read the melting point as the temperature of the solid-liquid transition.

Like-named read-outs stand apart in the source and are kept apart here.

T1 sequence (Q64640 whole entry): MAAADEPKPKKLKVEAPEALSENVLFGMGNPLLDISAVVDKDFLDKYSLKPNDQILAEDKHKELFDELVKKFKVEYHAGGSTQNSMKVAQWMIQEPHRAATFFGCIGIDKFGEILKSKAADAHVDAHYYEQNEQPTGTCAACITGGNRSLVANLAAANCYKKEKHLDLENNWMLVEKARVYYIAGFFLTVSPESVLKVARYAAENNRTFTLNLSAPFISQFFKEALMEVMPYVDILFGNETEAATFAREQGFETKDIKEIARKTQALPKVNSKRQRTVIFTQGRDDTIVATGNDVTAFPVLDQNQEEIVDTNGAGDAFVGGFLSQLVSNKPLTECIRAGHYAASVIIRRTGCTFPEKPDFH

Take `COc1cc2ncnc(Nc3ccc(I)cc3)c2cc1OC.Cl`: the melting point was in the range of 266 to 269 °C.
On the same count and under the same terms, for `COc1cc2ncnc(Nc3ccc(C)cc3)c2cc1OC.Cl` the value was 227 to 229 °C; for `COc1cc2ncnc(Nc3cccc(C(C)=O)c3)c2cc1OC.Cl`, 219 to 221 °C; for `COc1cc2ncnc(Nc3ccc(C(C)=O)cc3)c2cc1OC.Cl`, 218 to 220 °C.
As to `COc1cc2ncnc(Cl)c2cc1OC` [3a, 4-chloro-6,7-dimethoxyquinazoline], in the data set with isolated rat hearts [1] (setting [7]), the EC50 is 0.631 nM. For the same compound, in the data set on isolated rat hearts [1] (setting [8]), the EC50 came out at 0.6 ± 0.5 nM. Further, in the data set with isolated rat hearts [1], the “increase in systolic pressure” value is about 30% and the bradycardia response is reported as about 29%. In addition, in the data set with isolated rat hearts [1] (mean±S.E.M.), the Final heart rate worked out at 173 ± 1 bpm and the Initial heart rate is 242 ± 5 bpm. The “Emax in the fractional pressor response” value in the data set with isolated rat hearts [1] (mean±S.E.M., infusion of increased concentrations) turned out to be 0.6±0.2.
For the compound `COc1cc2ncnc(Nc3cccc(Br)c3)c2cc1OC.Cl` [4d, 6,7-Dimethoxy-4-(3′-bromoanilino)quinazoline hydrochloride], the “effect on amount of myocardial adenosine” value in data set [2] (chromatograms of rat myocardium extracts (FIG. 6)) is given as “increased substantially”. In addition, the myocardial adenosine value in data set [2] (hearts treated with compound, average, basal value 0.48) is recorded as 0.75 nmol/mg of protein. Also, the adenosine kinase inhibition entry on cardiac adenosine kinase is on record as “adenosine kinase inhibitors”. Also, in the data set on isolated rat hearts [1] (setting [7]), the EC50 was 6.31 nM. In addition, in the data set on isolated rat hearts [1] (setting [8]), the EC50 worked out at 6 ± 1.2 nM. In addition, in the data set on isolated rat hearts [1], the “increase in systolic pressure” value is given as about 14%, the bradycardia response was about 25% and the “maximum pressor response (LVP)” value worked out at 8±4 mmHg. For the same compound, in the data set on isolated rat hearts [1] (mean±S.E.M.), the Final heart rate was 164 ± 3 bpm and the Initial heart rate was found to be 219 ± 12 bpm. Besides, the “Emax in the fractional pressor response” value with isolated rat hearts [1] (setting [9]) is 0.3±0.1.
As to `COc1cc2ncnc(Nc3cccc(N(C)C)c3)c2cc1OC.Cl` [4i, 6,7-Dimethoxy-4-(3′-N′,N′-dimethylaminoanilino)quinazoline hydrochloride], the adenosine kinase inhibition result on cardiac adenosine kinase was “adenosine kinase inhibitors”. Also, in the data set with isolated rat hearts [1], the “increase in systolic pressure” value is recorded as “approximately 35%”, the bradycardia response entry is “approximately 24%” and the “maximum pressor response (LVP)” value came to 27±3 mmHg. Further, in the data set on isolated rat hearts [1] (mean±S.E.M.), the Final heart rate is given as 173 ± 8 bpm and the Initial heart rate is 228 ± 7 bpm. Further, the “Emax in the fractional pressor response” value with isolated rat hearts [1] (setting [9]) is 0.9±0.2. In addition, the “LogEC50 in the fractional pressor response” value in the data set with isolated rat hearts [1] (mean±S.E.M., given as negative log values) was −9.9 ± 0.3. The EC50 with isolated rat hearts [1] (mean±S.E.M., infusion of increased concentrations, read-out: EC50 in the fractional pressor response) was 0.1 ± 0.03 nM. Further, the “pressor response with heart rate controlled” value in the data set with isolated rat hearts [3] is listed as “almost annulled”. Further, the “bradycardia response under blocking” value in the data set with isolated hearts [4] is recorded as “not altered”. Moreover, the “reduction of heart rate” value in the data set on isolated rat hearts [5] (1 nM 4i, compared to control hearts) was “approximately 17%”. The “Heart Rate” value in the data set on isolated rat hearts [5] (HEPES buffer with 1 nM 4i, control 233 ± 7) is 194 ± 7 bpm.
Turning to `Nc1ncnc2c1ncn2[C@@H]1O[C@H](CO)[C@@H](O)[C@H]1O` [Adenosine, adenosine], the “increase in ventricular pressure” value in the data set with isolated hearts [6] (1 μM adenosine (maximum response)) is recorded as 16±2 mmHg. The “decrease in heart rate” value in the data set on isolated hearts [6] (8-PT (1 μM) present, compared to basal values) is “about 15%”. Also, the EC50 was 30 ± 19 nM with isolated hearts [6] (HEPES buffer with 8-PT (1 μM), read-out: EC50 pressor response); 6.31 nM in the data set with isolated hearts [6] (pure HEPES buffer, given as negative log values, read-out: LogEC50 in the fractional pressor response (converted)); 7 ± 1.4 nM in the data set with isolated hearts [6] (pure HEPES buffer, mean±S.E.M., read-out: EC50 pressor response); 1.8 ± 1.4 nM with isolated hearts [6] (pure HEPES buffer, read-out: EC50 bradycardia response). Further, in the data set with isolated hearts [6] (compared to absolute basal values, 1 μM adenosine (maximum response)), the “reduction in heart rate” value is “approximately 19%”. In the data set on isolated hearts [6] (pure HEPES buffer, final value after increased concentrations), the “Final heart rate” value turned out to be 185 ± 2 bpm. For the same compound, the “Initial heart rate” value with isolated hearts [6] (pure HEPES buffer, initial value) stood at 228 ± 2 bpm. Moreover, in the data set with isolated hearts [6] (pure HEPES buffer, mean±S.E.M.), the “Emax in the fractional pressor response” value came out at 0.93 ± 0.05.
